As usually defined, the IC50 is the concentration at which inhibition is half-maximal.

The structures appear in SMILES notation.

Experiment [1] concerns ERK1/2 phosphorylation in Raw264.7 cells expressing mPTPB. Kind of experiment: ERK phosphorylation in macrophage cells expressing mPTPB (western blot). It is filed as cell-based, mouse. To be noted: IFN-γ, L01Z08 especially at 120 and 240 nM. How it is done:
As explained above, ERK phosphorylation is important in the cellular secretion pathway of IL-6. However, mPTPB blocks or inhibits the phosphorylation of ERK which reduces and potentially prevents IL-6 secretion altogether.
Raw264.7 mouse macrophages were cultured in Dulbecco's modified Eagle's medium (DMEM) supplemented with 10% FBS (Invitrogen), penicillin (50 units/mL), and streptomycin (50 μg/mL) under a humidified atmosphere containing 5% CO2 at 37° C. Transfected Raw264.7 cells (Vector, WT-mPTPB) were seeded in a 12-well plate at a density of 4×10^4 cells/well. The following day cells were treated with mPTPB inhibitor 213a for 1 hr, then stimulated with IFN-γ (200 U/ml) for 1 h. […]. Wash with ice-cold phosphate buffered saline, and lysed with lysis buffer on ice for 30 min. Cell lysate is then cleared by centrifuging at 13,000 rpm for 15 min. The phosphorylation of ERK1/2 and Akt was detected by western blotting.

A further experiment concerns the target FAP1 (Homo sapiens, UniProt Q12923). Put plainly: biochemical. It is filed as biochemical.
The next experiment addresses Laforin (Homo sapiens, UniProt O95278). It is filed as biochemical.
The target in another experiment is T1, PTP1B (Homo sapiens, UniProt P18031).
T1 sequence (P18031 1-435): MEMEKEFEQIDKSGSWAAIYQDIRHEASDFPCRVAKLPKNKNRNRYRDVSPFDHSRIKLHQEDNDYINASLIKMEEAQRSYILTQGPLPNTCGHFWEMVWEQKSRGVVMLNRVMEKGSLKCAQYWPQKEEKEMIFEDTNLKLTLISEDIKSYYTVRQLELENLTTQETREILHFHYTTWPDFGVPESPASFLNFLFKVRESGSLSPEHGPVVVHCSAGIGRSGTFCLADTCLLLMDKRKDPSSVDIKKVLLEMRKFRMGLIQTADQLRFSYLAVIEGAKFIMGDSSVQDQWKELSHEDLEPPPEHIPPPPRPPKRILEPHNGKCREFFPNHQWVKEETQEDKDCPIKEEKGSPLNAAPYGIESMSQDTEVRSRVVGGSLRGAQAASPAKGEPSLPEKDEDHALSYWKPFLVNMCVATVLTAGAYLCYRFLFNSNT
Kind of experiment: biochemical. It is filed as biochemical.

A further experiment addresses T2, CD45 (Homo sapiens, UniProt P08575).
T2 sequence (P08575 26-1306): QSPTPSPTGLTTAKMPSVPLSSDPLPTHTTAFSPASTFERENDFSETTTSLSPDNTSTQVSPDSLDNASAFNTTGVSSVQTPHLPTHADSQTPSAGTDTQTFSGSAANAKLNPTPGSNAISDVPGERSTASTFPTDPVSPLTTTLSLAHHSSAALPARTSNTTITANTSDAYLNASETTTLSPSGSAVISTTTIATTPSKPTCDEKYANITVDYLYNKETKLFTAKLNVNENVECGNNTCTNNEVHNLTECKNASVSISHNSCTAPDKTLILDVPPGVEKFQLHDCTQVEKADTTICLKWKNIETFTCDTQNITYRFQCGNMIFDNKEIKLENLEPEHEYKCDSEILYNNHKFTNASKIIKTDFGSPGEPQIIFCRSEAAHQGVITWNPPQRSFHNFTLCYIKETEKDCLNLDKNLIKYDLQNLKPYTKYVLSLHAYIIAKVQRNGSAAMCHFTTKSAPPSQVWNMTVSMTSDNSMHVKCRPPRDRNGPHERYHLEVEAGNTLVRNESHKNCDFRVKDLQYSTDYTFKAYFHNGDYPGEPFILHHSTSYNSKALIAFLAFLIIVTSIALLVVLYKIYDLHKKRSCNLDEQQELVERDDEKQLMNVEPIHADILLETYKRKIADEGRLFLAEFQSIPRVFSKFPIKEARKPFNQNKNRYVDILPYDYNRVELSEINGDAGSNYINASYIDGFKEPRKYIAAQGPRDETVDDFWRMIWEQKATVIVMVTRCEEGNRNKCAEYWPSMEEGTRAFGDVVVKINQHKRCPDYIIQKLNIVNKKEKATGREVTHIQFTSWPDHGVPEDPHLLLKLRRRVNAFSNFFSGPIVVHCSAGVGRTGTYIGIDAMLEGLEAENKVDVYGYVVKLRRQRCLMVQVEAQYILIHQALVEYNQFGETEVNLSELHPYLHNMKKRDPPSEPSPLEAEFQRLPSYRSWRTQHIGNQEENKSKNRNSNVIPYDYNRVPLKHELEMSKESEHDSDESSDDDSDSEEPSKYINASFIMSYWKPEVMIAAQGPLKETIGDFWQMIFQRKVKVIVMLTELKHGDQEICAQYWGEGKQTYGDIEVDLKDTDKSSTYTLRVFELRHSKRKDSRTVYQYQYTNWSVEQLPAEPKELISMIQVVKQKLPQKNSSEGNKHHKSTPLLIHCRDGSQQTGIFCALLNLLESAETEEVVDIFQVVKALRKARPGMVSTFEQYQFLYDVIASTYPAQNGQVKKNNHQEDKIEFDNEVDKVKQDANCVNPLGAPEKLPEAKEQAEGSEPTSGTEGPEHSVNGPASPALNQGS
Kind of experiment: biochemical. It is filed as biochemical.

Another experiment addresses T3, VHX (Homo sapiens, UniProt Q9NRW4).
T3 sequence (Q9NRW4 1-184): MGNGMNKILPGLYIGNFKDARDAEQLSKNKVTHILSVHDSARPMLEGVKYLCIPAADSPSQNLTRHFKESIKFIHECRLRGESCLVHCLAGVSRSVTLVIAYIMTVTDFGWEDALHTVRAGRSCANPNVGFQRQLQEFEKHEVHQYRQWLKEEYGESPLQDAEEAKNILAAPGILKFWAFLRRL
Kind of experiment: biochemical. Format: biochemical.

For the next experiment, the target named is T4, TC-PTP (Homo sapiens, UniProt P17706).
T4 sequence (P17706 1-415): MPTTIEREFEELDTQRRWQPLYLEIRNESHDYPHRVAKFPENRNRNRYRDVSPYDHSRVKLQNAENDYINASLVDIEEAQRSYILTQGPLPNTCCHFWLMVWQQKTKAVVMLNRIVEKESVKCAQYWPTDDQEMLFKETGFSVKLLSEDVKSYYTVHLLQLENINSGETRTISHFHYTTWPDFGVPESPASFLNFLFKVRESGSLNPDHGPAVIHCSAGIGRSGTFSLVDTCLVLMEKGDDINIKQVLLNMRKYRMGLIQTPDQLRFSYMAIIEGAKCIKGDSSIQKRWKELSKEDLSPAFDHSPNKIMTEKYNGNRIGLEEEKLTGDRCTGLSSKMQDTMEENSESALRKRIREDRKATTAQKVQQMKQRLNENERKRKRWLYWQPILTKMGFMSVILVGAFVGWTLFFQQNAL
Put plainly: PTP selectivity panel: TC-PTP. Format: biochemical. To be noted: read-out: IC50 (μM) TC-PTP.

Chain of FAP1 (Q12923 whole entry, species assumed): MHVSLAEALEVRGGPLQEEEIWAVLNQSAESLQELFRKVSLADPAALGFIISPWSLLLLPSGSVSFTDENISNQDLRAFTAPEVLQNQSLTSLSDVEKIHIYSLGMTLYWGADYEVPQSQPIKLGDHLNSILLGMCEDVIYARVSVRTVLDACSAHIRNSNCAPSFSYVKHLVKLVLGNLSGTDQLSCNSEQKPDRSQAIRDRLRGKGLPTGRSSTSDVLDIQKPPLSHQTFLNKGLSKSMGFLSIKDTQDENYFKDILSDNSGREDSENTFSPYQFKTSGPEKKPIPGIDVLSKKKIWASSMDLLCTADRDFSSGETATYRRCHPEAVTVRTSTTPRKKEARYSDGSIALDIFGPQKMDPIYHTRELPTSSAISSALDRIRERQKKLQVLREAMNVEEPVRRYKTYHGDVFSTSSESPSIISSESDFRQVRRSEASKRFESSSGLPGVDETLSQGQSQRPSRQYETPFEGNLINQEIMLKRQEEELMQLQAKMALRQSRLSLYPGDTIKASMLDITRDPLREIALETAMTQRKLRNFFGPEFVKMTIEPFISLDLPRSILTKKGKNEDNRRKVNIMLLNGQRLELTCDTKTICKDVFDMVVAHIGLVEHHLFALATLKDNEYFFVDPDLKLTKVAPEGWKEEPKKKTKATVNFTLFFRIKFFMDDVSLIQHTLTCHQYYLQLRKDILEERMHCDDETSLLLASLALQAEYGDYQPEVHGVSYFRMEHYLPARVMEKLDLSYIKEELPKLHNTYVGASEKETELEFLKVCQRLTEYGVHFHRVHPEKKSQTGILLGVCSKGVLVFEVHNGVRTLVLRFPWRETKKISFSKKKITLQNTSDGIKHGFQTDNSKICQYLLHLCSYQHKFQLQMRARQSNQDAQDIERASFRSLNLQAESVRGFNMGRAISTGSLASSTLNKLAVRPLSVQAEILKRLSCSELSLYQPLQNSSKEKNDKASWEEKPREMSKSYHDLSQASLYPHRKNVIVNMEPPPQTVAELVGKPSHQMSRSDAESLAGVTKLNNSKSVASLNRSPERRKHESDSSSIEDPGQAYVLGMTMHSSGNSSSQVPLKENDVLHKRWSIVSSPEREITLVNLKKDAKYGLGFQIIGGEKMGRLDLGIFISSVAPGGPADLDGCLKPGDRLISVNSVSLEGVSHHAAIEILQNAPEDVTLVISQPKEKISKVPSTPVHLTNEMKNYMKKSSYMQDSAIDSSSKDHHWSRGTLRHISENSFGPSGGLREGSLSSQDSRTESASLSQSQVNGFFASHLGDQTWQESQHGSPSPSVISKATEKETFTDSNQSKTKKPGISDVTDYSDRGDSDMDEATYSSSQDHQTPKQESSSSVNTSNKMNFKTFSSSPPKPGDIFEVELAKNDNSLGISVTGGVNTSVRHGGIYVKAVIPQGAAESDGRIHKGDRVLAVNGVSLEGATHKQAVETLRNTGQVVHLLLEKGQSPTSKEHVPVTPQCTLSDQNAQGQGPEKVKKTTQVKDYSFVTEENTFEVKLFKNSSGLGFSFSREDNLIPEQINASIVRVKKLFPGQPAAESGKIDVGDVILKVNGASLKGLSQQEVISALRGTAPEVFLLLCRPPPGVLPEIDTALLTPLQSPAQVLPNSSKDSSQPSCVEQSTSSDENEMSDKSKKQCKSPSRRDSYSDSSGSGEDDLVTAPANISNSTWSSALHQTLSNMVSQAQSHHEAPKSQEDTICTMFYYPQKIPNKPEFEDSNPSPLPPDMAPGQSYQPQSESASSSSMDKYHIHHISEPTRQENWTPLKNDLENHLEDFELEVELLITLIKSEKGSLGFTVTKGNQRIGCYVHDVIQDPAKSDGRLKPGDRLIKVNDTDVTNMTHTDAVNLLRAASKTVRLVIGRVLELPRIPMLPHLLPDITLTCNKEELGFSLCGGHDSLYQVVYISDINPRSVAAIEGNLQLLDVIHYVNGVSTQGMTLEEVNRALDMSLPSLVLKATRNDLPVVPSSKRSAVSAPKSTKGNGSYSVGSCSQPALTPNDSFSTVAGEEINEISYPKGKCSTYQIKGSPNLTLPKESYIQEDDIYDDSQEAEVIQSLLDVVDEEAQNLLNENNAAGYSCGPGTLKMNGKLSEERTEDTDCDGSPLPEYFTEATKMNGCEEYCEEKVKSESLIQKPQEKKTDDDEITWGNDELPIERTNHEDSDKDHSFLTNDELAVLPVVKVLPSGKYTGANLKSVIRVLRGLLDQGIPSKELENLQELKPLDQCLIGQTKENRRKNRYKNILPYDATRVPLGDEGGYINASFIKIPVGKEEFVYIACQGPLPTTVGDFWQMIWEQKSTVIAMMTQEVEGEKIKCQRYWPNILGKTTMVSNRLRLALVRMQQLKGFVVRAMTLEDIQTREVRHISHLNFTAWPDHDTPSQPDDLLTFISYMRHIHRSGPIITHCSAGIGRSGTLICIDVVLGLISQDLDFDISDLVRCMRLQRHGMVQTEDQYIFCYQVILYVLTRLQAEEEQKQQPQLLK
Chain of Laforin (O95278 whole entry, species assumed): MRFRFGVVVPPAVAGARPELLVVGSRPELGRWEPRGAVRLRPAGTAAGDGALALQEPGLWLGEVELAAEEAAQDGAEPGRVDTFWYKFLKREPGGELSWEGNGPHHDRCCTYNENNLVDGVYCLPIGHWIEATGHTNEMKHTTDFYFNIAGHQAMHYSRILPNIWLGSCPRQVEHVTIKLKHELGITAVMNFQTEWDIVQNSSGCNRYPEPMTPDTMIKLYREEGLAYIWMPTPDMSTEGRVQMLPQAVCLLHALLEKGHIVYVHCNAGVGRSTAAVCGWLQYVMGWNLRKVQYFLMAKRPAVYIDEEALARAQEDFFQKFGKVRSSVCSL

With `O=C(O)c1cc2c(C#Cc3cccc(C(F)(F)F)c3)c(-c3ccccc3)oc2cc1O` [32 (L01Z08)], in experiment [1], the “ERK phosphorylation / ERK1/2 activity” value is “normal or near normal levels”. Also, the half-maximal inhibitory concentration (IC50) against FAP1 came to 1.3 ± 0.2 µM; against Laforin, 40 ± 10 µM; on PTP1B it was 6.7 ± 0.7 µM; against CD45, 4.2 ± 0.5 µM; against VHX, 1.4 ± 0.2 µM; on TC-PTP, 5.7 ± 0.4 µM.
In the case of `Cn1c(-c2ccccc2C(F)(F)F)c(I)c2cc(C(=O)O)c(O)cc21` [Compound 207a, 6-hydroxy-3-iodo-1-methyl-2-(2-(trifluoromethyl)phenyl)-1H-indole-5-carboxylic acid], the half-inhibitory concentration (IC50) on FAP1 came to 84 ± 1 µM; against PTP1B, 700 ± 100 µM; on CD45, 227 ± 4 µM; at VHX, 56 ± 1 µM.

Values taken from patent US9493436B2, “Tyrosine phosphatase inhibitors and uses thereof to modulate the activity of enzymes involved in the pathology of Mycobacterium tuberculosis” (priority 2011, dated 2016).
